PubChem BioAssay (NCI)
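Five compound concentrations were applied to cells in 96-well plates for 48 hours; endpoints were derived by simple linear interpolation of the resulting dose-response curve. TGI is the concentration that stops growth completely.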

What was measured:
Assay in all cases: NCI tumour cell line growth inhibition, 48 h
[1] = system: MALME-3M melanoma
[2] = system: HT29 colon
[3] = system: NCI-H226 lung
[4] = system: CAKI-1 renal
[5] = system: K-562 leukemia
[6] = system: SF-539 CNS
[7] = system: NCI-H522 lung
[8] = system: SNB-19 CNS
[9] = system: CCRF-CEM leukemia
[10] = system: TK-10 renal
[11] = system: IGROV1 ovarian
[12] = system: NCI-H23 lung
[13] = system: NCI-H460 lung
[14] = system: HOP-62 NSCLC
[15] = system: 786-0 renal
[16] = system: KM20L2 colon
[17] = system: M14 melanoma
[18] = system: UO-31 renal
[19] = system: RPMI-8226 leukemia
[20] = system: MOLT-4 leukemia
[21] = system: OVCAR-8 ovarian
[22] = system: SN12C renal
[23] = system: A549 NSCLC
[24] = system: HCT-15 colon
[25] = system: SF-295 CNS
[26] = system: M19-MEL melanoma
[27] = system: KM12 colon
[28] = system: LXFL 529 NSCLC
[29] = system: SR leukemia
[30] = system: SK-MEL-2 melanoma
[31] = system: SK-OV-3 ovarian
[32] = system: HCC-2998 colon
[33] = system: HOP-92 NSCLC
[34] = system: RXF-631 renal
[35] = system: LOX IMVI melanoma
[36] = system: SK-MEL-28 melanoma
[37] = system: UACC-257 melanoma
[38] = system: HL-60(TB) leukemia
[39] = system: XF 498 CNS
[40] = system: SW-620 colon
[41] = system: SNB-75 CNS
[42] = system: HCT-116 colon
[43] = system: OVCAR-5 ovarian
[44] = system: U251 CNS
[45] = system: ACHN renal
[46] = system: COLO 205 colon
[47] = system: SNB-78 CNS
[48] = system: DMS 273 small cell lung
[49] = system: EKVX NSCLC
[50] = system: HOP-18 NSCLC
[51] = system: DLD-1 colon
[52] = system: RXF 393 renal
[53] = system: SF-268 CNS
[54] = system: SK-MEL-5 melanoma
[55] = system: OVCAR-3 ovarian
[56] = system: DMS 114 small cell lung
[57] = system: UACC-62 melanoma
[58] = system: OVCAR-4 ovarian
[59] = system: A498 renal
[60] = system: MCF7 breast
[61] = system: P388 leukemia
[62] = system: P388/ADR leukemia
[63] = system: NCI/ADR-RES ovarian
[64] = system: SN12K1 renal

CCOC(=O)CCn1ncc(Cl)c(Cl)c1=O
TGI [1]: 34.4 µM
TGI [2]: 14.2 µM
TGI [3]: 25.3 µM
TGI [4]: 10.8 µM
TGI [5]: 8.52 µM
TGI [6]: 27.3 µM
TGI [7]: 0.834 µM
TGI [8]: 26.7 µM
TGI [9]: 9.76 µM
TGI [10]: 34.5 µM
TGI [11]: 26 µM
TGI [12]: 4.66 µM
TGI [13]: 30.3 µM
TGI [14]: 39.8 µM
TGI [15]: 34.7 µM
TGI [16]: 31.4 µM
TGI [17]: 14.5 µM
TGI [18]: 29.3 µM
TGI [19]: 15.3 µM
TGI [20]: 11.7 µM
TGI [21]: 11.9 µM
TGI [22]: 29.3 µM
TGI [23]: 32.9 µM
TGI [24]: 4.69 µM
TGI [25]: 34.2 µM
TGI [26]: 8.35 µM
TGI [27]: 20 µM
TGI [28]: 10.5 µM
TGI [29]: 7.28 µM
TGI [30]: 26.4 µM
TGI [31]: 42.5 µM
TGI [32]: 10.4 µM
TGI [33]: 26.2 µM
TGI [34]: 7.92 µM
TGI [35]: 25.7 µM
TGI [36]: 6.58 µM
TGI [37]: 26.5 µM
TGI [38]: 6.49 µM
TGI [39]: 37.9 µM
TGI [40]: 9.7 µM
TGI [41]: 29.6 µM
TGI [42]: 24.2 µM
TGI [43]: 32.1 µM
TGI [44]: 17.1 µM
TGI [45]: 33.7 µM
TGI [46]: 25.6 µM
TGI [47]: 22.1 µM
TGI [48]: 27 µM
TGI [49]: 36 µM
TGI [50]: 11.7 µM
TGI [51]: 21.5 µM
TGI [52]: 29 µM
TGI [53]: 21.6 µM
TGI [54]: 25.3 µM
TGI [55]: 10.8 µM
TGI [56]: 4.3 µM
TGI [57]: 19.2 µM
TGI [58]: 2.9 µM
TGI [59]: 39.6 µM

O=C(O)c1ccccc1N=Cc1ccc(N(CCCl)CCCl)cc1
TGI [60]: > 100 µM
TGI [1]: > 100 µM
TGI [2]: > 100 µM
TGI [4]: 34.5 µM
TGI [5]: > 100 µM
TGI [6]: > 100 µM
TGI [7]: > 100 µM
TGI [8]: > 100 µM
TGI [9]: > 100 µM
TGI [11]: > 100 µM
TGI [12]: > 100 µM
TGI [13]: > 100 µM
TGI [16]: > 100 µM
TGI [18]: > 100 µM
TGI [61]: > 100 µM
TGI [19]: > 100 µM
TGI [20]: > 100 µM
TGI [21]: > 100 µM
TGI [22]: > 100 µM
TGI [23]: > 100 µM
TGI [24]: > 100 µM
TGI [25]: > 100 µM
TGI [26]: > 100 µM
TGI [27]: > 100 µM
TGI [62]: > 100 µM
TGI [30]: > 100 µM
TGI [31]: > 100 µM
TGI [32]: > 100 µM
TGI [33]: > 100 µM
TGI [63]: > 100 µM
TGI [64]: > 100 µM
TGI [35]: > 100 µM
TGI [36]: > 100 µM
TGI [37]: > 100 µM
TGI [38]: > 100 µM
TGI [40]: > 100 µM
TGI [41]: > 100 µM
TGI [42]: > 100 µM
TGI [43]: > 100 µM
TGI [44]: > 100 µM
TGI [46]: > 100 µM
TGI [47]: > 100 µM
TGI [48]: > 100 µM
TGI [49]: > 100 µM
TGI [50]: > 100 µM
TGI [51]: > 100 µM
TGI [52]: > 73.2 µM
TGI [53]: > 100 µM
TGI [54]: > 100 µM
TGI [55]: > 100 µM
TGI [57]: > 100 µM
TGI [58]: > 100 µM
TGI [59]: > 57.7 µM
